Molecular target: T1, human GPR84 receptor (Homo sapiens, UniProt Q9NQS5)
T1 construct: frozen aliquots prepared by acCELLerate; host or cells: CHO-K1
Assay: cAMP HTRF assay for identification of cellular GPR84 antagonists
Format: cell-based
Details: CHO-K1 cells stably expressing human GPR84; Forskolin + agonist 6-OAU (EC80); average or median values
Procedure, shortened: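 Forskolin-stimulated CHO-K1 cells stably expressing human GPR84, agonist-suppressed cAMP measured by HTRF (665/620 ratio) after lysis. Compounds at 11 concentrations, 20 μM to 0.07 nM, duplicate; normalized to DMSO and no-agonist controls; IC50 by 4-parameter fit.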

T1 sequence (Q9NQS5 whole entry): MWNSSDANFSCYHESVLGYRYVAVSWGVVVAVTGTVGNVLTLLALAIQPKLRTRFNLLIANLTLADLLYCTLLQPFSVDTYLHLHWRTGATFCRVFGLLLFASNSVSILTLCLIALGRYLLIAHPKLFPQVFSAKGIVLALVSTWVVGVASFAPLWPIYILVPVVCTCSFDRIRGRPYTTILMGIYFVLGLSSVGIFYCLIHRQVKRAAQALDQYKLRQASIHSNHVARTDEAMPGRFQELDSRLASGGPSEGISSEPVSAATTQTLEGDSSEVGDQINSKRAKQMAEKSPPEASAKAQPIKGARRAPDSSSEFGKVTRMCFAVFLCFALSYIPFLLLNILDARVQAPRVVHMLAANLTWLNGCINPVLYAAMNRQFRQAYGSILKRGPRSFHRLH

| IC50 [µM] | SMILES |
| --- | --- |
| 0.16 | Cc1c(C(=O)NCc2nccs2)oc2c1-c1nn(Cc3ccccn3)cc1CC2 [Example 23, 8-methyl-2-(pyridin-2ylmethyl)-N-(1,3-thiazol-2-ylmethyl)-4,5-dihydro-2H-furo[2,3-g]indazole-7-carboxamide] |
| 6.56 | Cc1c(C(=O)NCc2cnoc2)oc2c1-c1nn(Cc3ccccn3)cc1CC2 [Example 24, 8-methyl-N-(1,2-oxazol-4-ylmethyl)-2-(pyridin-2-ylmethyl)-4,5-dihydro-2H-furo[2,3-g]indazole-7-carboxamide] |
| 0.16 | Cc1c(C(=O)NCc2cc(C(F)(F)F)on2)oc2c1-c1nn(Cc3ccccn3)cc1CC2 [Example 25, 8-methyl-2-(pyridin-2-ylmethyl)-N-{[5-(trifluoromethyl)-1,2-oxazol-3-yl]methyl}-4,5-dihydro-2H-furo[2,3-g]indazole-7-carboxamide] |
| 1.19 | Cc1conc1CNC(=O)c1oc2c(c1C)-c1nn(Cc3ccccn3)cc1CC2 [Example 26, 8-methyl-N-[(4-methyl-1,2-oxazol-3-yl)methyl]-2-(pyridin-2-ylmethyl)-4,5-dihydro-2H-furo[2,3-g]indazole-7-carboxamide] |
| 17.5 | Cc1noc(C)c1CNC(=O)c1oc2c(c1C)-c1nn(Cc3ccccn3)cc1CC2 [Example 27, N-[(3,5-dimethyl-1,2-oxazol-4-yl)methyl]-8-methyl-2-(pyridin-2-ylmethyl)-4,5-dihydro-2H-furo[2,3-g]indazole-7-carboxamide] |
| 4.57 | Cc1c(C(=O)NCCN2CC(C)(C)C2=O)oc2c1-c1nn(Cc3ccccn3)cc1CC2 [Example 28, N-[2-(3,3-dimethyl-2-oxoazetidin-1-yl)ethyl]-8-methyl-2-(pyridin-2-ylmethyl)-4,5-dihydro-2H-furo[2,3-g]indazole-7-carboxamide] |
| 0.29 | COCCNC(=O)c1oc2c(c1C)-c1nn(Cc3ccccn3)cc1CC2 [Example 29, N-(2-methoxyethyl)-8-methyl-2-(pyridin-2-ylmethyl)-4,5-dihydro-2H-furo[2,3-g]indazole-7-carboxamide] |
| > 20 | Cc1c(C(=O)NCc2nocc2C(=O)O)oc2c1-c1nn(Cc3ccccn3)cc1CC2 [Example 31, 3-[({[8-methyl-2-(pyridin-2-ylmethyl)-4,5-dihydro-2H-furo[2,3-g]indazol-7-yl]carbonyl}amino)methyl]-1,2-oxazole-4-carboxylic acid] |
| 0.15 | Cc1c(C(=O)NCc2ncco2)oc2c1-c1nn(Cc3ccccn3)cc1CC2 [Example 32, 8-methyl-N-(1,3-oxazol-2-ylmethyl)-2-(pyridin-2-ylmethyl)-4,5-dihydro-2H-furo[2,3-g]indazole-7-carboxamide] |
| 1.89 | Cc1c(C(=O)NC[C@@H]2CCOC2)oc2c1-c1nn(Cc3ccccn3)cc1CC2 [Example 33-1, 8-methyl-2-(pyridin-2-ylmethyl)-N-[(3S)-tetrahydrofuran-3-ylmethyl]-4,5-dihydro-2H-furo[2,3-g]indazole-7-carboxamide] |
| 2.89 | Cc1c(C(=O)NC[C@H]2CCOC2)oc2c1-c1nn(Cc3ccccn3)cc1CC2 [Example 33-2, 8-methyl-2-(pyridin-2-ylmethyl)-N-[(3R)-tetrahydrofuran-3-ylmethyl]-4,5-dihydro-2H-furo[2,3-g]indazole-7-carboxamide] |
| 0.28 | Cc1c(C(=O)NCc2ccn(C)n2)oc2c1-c1nn(Cc3ccccn3)cc1CC2 [Example 34, 8-methyl-N-[(1-methyl-1H-pyrazol-3-yl)methyl]-2-(pyridin-2-ylmethyl)-4,5-dihydro-2H-furo[2,3-g]indazole-7-carboxamide] |
| 1.72 | Cc1c(C(=O)NCC2COC2)oc2c1-c1nn(Cc3ccccn3)cc1CC2 [Example 36, 8-methyl-N-(oxetan-3-ylmethyl)-2-(pyridin-2-ylmethyl)-4,5-dihydro-2H-furo[2,3-g]indazole-7-carboxamide] |
| 9.5 | Cc1c(C(=O)NCC2(F)COC2)oc2c1-c1nn(Cc3ccccn3)cc1CC2 [Example 37, N-[(3-fluorooxetan-3-yl)methyl]-8-methyl-2-(pyridin-2-ylmethyl)-4,5-dihydro-2H-furo[2,3-g]indazole-7-carboxamide] |
| 0.67 | Cc1c(C(=O)Nc2ccn(C)n2)oc2c1-c1nn(Cc3ccccn3)cc1CC2 [Example 40, 8-methyl-N-(1-methyl-1H-pyrazol-3-yl)-2-(pyridin-2-ylmethyl)-4,5-dihydro-2H-furo[2,3-g]indazole-7-carboxamide] |
| 5.42 | Cc1c(C(=O)Nc2cccnc2)oc2c1-c1nn(Cc3ccccn3)cc1CC2 [Example 41, 8-methyl-N-(pyridin-3-yl)-2-(pyridin-2-ylmethyl)-4,5-dihydro-2H-furo[2,3-g]indazole-7-carboxamide] |
| 1.53 | Cc1c(C(=O)NCCc2ccccc2)oc2c1-c1nn(Cc3ccccn3)cc1CC2 [Example 42, 8-methyl-N-(2-phenylethyl)-2-(pyridin-2-ylmethyl)-4,5-dihydro-2H-furo[2,3-g]indazole-7-carboxamide] |

| IC50 [µM] | SMILES |
| --- | --- |
| 11.1 | Cc1c(C(=O)Nc2ccc(C#N)cc2)oc2c1-c1nn(Cc3ccccn3)cc1CC2 [Example 43, N-(4-cyanophenyl)-8-methyl-2-(pyridin-2-ylmethyl)-4,5-dihydro-2H-furo[2,3-g]indazole-7-carboxamide] |
| 0.018 | Cc1c(C(=O)NC[C@@H]2CCCO2)oc2c1-c1nn(Cc3cccnc3)cc1CC2 [Example 44, 8-methyl-2-(pyridin-3-ylmethyl)-N-[(2S)-tetrahydrofuran-2-ylmethyl]-4,5-dihydro-2H-furo[2,3-g]indazole-7-carboxamide] |
| 0.029 | Cc1c(C(=O)NC[C@@H]2COCCO2)oc2c1-c1nn(Cc3cccnc3)cc1CC2 [Example 45, N-[(2R)-1,4-dioxan-2-ylmethyl]-8-methyl-2-(pyridin-3-ylmethyl)-4,5-dihydro-2H-furo[2,3-g]indazole-7-carboxamide] |
| 0.013 | Cc1c(C(=O)NC[C@@H]2CCCO2)oc2c1-c1nn(Cc3ccncc3)cc1CC2 [Example 46, 8-methyl-2-(pyridin-4-ylmethyl)-N-[(2S)-tetrahydrofuran-2-ylmethyl]-4,5-dihydro-2H-furo[2,3-g]indazole-7-carboxamide] |
| 0.019 | Cc1c(C(=O)NC[C@@H]2COCCO2)oc2c1-c1nn(Cc3ccncc3)cc1CC2 [Example 47, N-[(2R)-1,4-dioxan-2-ylmethyl]-8-methyl-2-(pyridin-4-ylmethyl)-4,5-dihydro-2H-furo[2,3-g]indazole-7-carboxamide] |
| 0.097 | Cc1c(C(=O)NC[C@@H]2CCCO2)oc2c1-c1nn(CC3CC3)cc1CC2 [Example 48, 2-(cyclopropylmethyl)-8-methyl-N-[(2S)-tetrahydrofuran-2-ylmethyl]-4,5-dihydro-2H-furo[2,3-g]indazole-7-carboxamide] |
| 0.11 | Cc1c(C(=O)NC[C@@H]2COCCO2)oc2c1-c1nn(CC3CC3)cc1CC2 [Example 49, 2-(cyclopropylmethyl)-N-[(2R)-1,4-dioxan-2-ylmethyl]-8-methyl-4,5-dihydro-2H-furo[2,3-g]indazole-7-carboxamide] |
| 0.032 | Cc1ccc(CNC(=O)c2oc3c(c2C)-c2nn(CC4COc5ncccc5O4)cc2CC3)cc1 (stereo not drawn) [Example 53] |
| 0.092 | Cc1c(C(=O)NC[C@@H]2CCCO2)oc2c1-c1nn(Cc3cccc(C(F)(F)F)n3)cc1CC2 [Example 56, 8-methyl-N-[(2S)-tetrahydrofuran-2-ylmethyl]-2-{[6-(trifluoromethyl)pyridin-2-yl]methyl}-4,5-dihydro-2H-furo[2,3-g]indazole-7-carboxamide] |
| 0.19 | Cc1c(C(=O)NC[C@@H]2CCCO2)oc2c1-c1nn(Cc3ccc(C(F)(F)F)cn3)cc1CC2 [Example 57, 8-methyl-N-[(2S)-tetrahydrofuran-2-ylmethyl]-2-{[5-(trifluoromethyl)pyridin-2-yl]methyl}-4,5-dihydro-2H-furo[2,3-g]indazole-7-carboxamide] |
| 0.24 | Cc1c(C(=O)NC[C@@H]2CCCO2)oc2c1-c1nn(Cc3ncc(F)cc3Cl)cc1CC2 [Example 58, 2-[(3-chloro-5-fluoropyridin-2-yl)methyl]-8-methyl-N-[(2S)-tetrahydrofuran-2-ylmethyl]-4,5-dihydro-2H-furo[2,3-g]indazole-7-carboxamide] |
| 0.07 | CCOc1cnc(Cn2cc3c(n2)-c2c(oc(C(=O)NC[C@@H]4CCCO4)c2C)CC3)c(Cl)c1 [Example 59, 2-[(3-chloro-5-ethoxypyridin-2-yl)methyl]-8-methyl-N-[(2S)-tetrahydrofuran-2-ylmethyl]-4,5-dihydro-2H-furo[2,3-g]indazole-7-carboxamide] |
| 0.027 | Cc1c(C(=O)NC[C@@H]2CCCO2)oc2c1-c1nn(Cc3ncccc3Cl)cc1CC2 [Example 60, 2-[(3-chloropyridin-2-yl)methyl]-8-methyl-N-[(2S)-tetrahydrofuran-2-ylmethyl]-4,5-dihydro-2H-furo[2,3-g]indazole-7-carboxamide] |
| 0.02 | Cc1c(C(=O)NC[C@@H]2COCCO2)oc2c1-c1nn(Cc3ncccc3Cl)cc1CC2 [Example 61, 2-[(3-chloropyridin-2-yl)methyl]-N-[(2R)-1,4-dioxan-2-ylmethyl]-8-methyl-4,5-dihydro-2H-furo[2,3-g]indazole-7-carboxamide] |
| 0.11 | Cc1cccnc1Cn1cc2c(n1)-c1c(oc(C(=O)NC[C@@H]3CCCO3)c1C)CC2 [Example 62, 8-methyl-2-[(3-methylpyridin-2-yl)methyl]-N-[(2S)-tetrahydrofuran-2-ylmethyl]-4,5-dihydro-2H-furo[2,3-g]indazole-7-carboxamide] |
| 0.06 | Cc1cccnc1Cn1cc2c(n1)-c1c(oc(C(=O)NC[C@@H]3COCCO3)c1C)CC2 [Example 63, N-[(2R)-1,4-dioxan-2-ylmethyl]-8-methyl-2-[(3-methylpyridin-2-yl)methyl]-4,5-dihydro-2H-furo[2,3-g]indazole-7-carboxamide] |

From patent publication US12570666B2, “Furoindazole derivatives” (Bayer Aktiengesellschaft, priority 2019, dated 2026)
